Series [1] concerns tumors. The note with it: oral administration; cited from earlier work.
The test system of series [2] is Tregs in the large intestine. The note with it: mouse, in vivo; cited from earlier work.
Series [3] has as its system C57Bl/6 female mice. The note with it: mouse, in vivo. From the text:
The trillions of organisms forming the microbiome function as an organ system interconnected throughout the body. The possibility that modification of the microbiome in a given physical location may influence the microbiome at other sites in the body (distal augmentation) was investigated. Seven week old C57Bl/6 female mice were acclimatized for 7 days prior to the start of the study by daily handling and shuffling between cages. All mice were housed at three mice per cage in individually vented cages (Thoren, Hazleton, Pa.). At day 0, baseline fresh fecal pellets, and vaginal lavages with 100 μL of sterile double-distilled water were collected and immediately frozen at −80° C. for microbiome analysis. […] Water alone is not expected to influence the microbiome and acted as a negative control. […] The impact of oral vancomycin is therefore expected to be limited to the gastrointestinal tract such that microbiome changes elsewhere in the body (e.g. vagina) would be attributable to distal augmentation. At day 6, fresh fecal pellets and vaginal lavages with 100 μL of sterile double-distilled water were collected and immediately stored at −80° C. for microbiome analysis.
Isolation and sequencing of microbial DNA from the stool and vaginal samples was performed by DNA Genotek (Ottawa, ON, Canada). The V3-V4 region of the 16S ribosomal subunit was amplified with custom PCR primers and sequenced on an Illumina MiSeq to a minimum acceptable read depth of 25,000 sequences per sample. […] These OTU's were then assigned a curated taxonomic label based on the seven level SILVA taxonomy.

Series [4] has as its system anaerobic commensal bacteria. Nature of the series: Carbon source utilization by commensal bacteria (Biolog PM01/PM02A plates, OD 750 nm). Type of series: cell-based.
Series [5] deals with healthy, adult volunteers. The note with it: human, in vivo, 28 days. As to the method:
D-xylose is a carbon source generally preferred by anaerobic bacteria. […] A parallel, double-blind, 5 cohort escalation food safety study was conducted to examine D-xylose in normal human volunteers. The study was a double-blind, single-center, parallel group study designed to evaluate the tolerability and potential microbiome changes induced by ingestion of D-xylose at 5 different amounts in healthy, adult volunteers enrolled at 1 study center in the United States (US).
Subjects were screened for eligibility within 21 days prior to the first planned ingestion of study sweetener on Day 1 (Baseline). […]
Subjects returned to the study center weekly on Days 8, 15, 22, and 28 for ingestion, tolerability, and compliance evaluations. Safety was evaluated on a continual basis through adverse events (AE) monitoring, clinical laboratory measurements, vital sign monitoring, physical examinations, electrocardiograms (ECGs), telephone follow-up, and electronic subject ingestion diaries. Stool was collected pre-ingestion and at pre-specified time points, and post-ingestion samples were evaluated for changes in the gut microbiome compared with Baseline for all subjects. […]
Safety was evaluated on a continual basis through AE monitoring, clinical laboratory measurements, vital sign monitoring, physical examinations, ECGs, telephone follow-up, and electronic subject ingestion diaries. […]

Series [6] is described as follows: Normal human volunteer study of D-xylose: pharmacokinetics (serum and urine D-xylose). Type of series: in vivo. As to conditions: Day 15; 15 mg TID cohort; variability high. How it is done:
Blood and urine were collected at pre-specified pre- and post-ingestion time points to measure D-xylose levels and to characterize the systemic absorption profiles of D-xylose. Serum D-xylose concentrations were summarized by cohort using nominal sample times according to actual amount received using summary statistics (n, coefficient of variation [CV], mean, standard deviation [SD], median, minimum, and maximum). Evidence for the occurrence of steady-state was assessed graphically by comparing the time course of either trough or 2-hour post-ingestion serum concentrations of D-xylose as different levels of D-xylose. Accumulation was assessed by comparing the 2-hour post-first-ingestion serum levels with those observed at Week 2 (Day 15) and Week 4 (Day 28). […] Urine PK parameters for D-xylose levels included Ae(0-t) (cumulative amount of sweetener recovered in urine) and percent sweetener amount excreted over a 5-hour period.

Series [7] concerns healthy, adult volunteers. The series can be described thus: Normal human volunteer study of D-xylose: immunology (CRP, cytokines, T-cell markers) and gut microbiome. As to conditions: for effect on gut microbiome (alpha diversity, community composition): stool 16S, normal individuals. It counts as in vivo. From the text: Blood was collected at pre-specified pre- and post-ingestion time points to evaluate C-reactive protein (CRP), serum cytokines (tumor necrosis factor alpha [TNF-α], interleukin [IL]-2, IL-6, interferon gamma [IFN-γ], and IL-10), and T-cell markers CD3, CD4, CD8, CD25, and FOXP3. Plasma was also stored and may be tested for biomarkers and/or metabolic markers for up to 7 years.
A total of 7 stool samples were expected to be collected for each subject. Evaluation of changes in the gut microbiome were evaluated in stool samples through taxonomic classification, relative and statistical differential abundance analyses by cohort and time point, an alpha diversity analysis calculated using the Shannon diversity index by cohort and time point, a beta diversity analysis using Bray-Curtis dissimilarity and Unifrac distance by subject and time point, and a principal coordinates analysis using the beta diversity data.
Summary statistics (n, mean, standard deviation, median, minimum, and maximum) were presented for serum concentrations of CRP, flow cytometry T-cell markers (CD3, CD4, CD8, CD25, and FOXP3), and cytokines (TNF-α, IL-2, IL-6, IFN-γ, and IL-10) as per their nominal time points.
A total of 344 stool samples were collected in OMNIgene•GUT collection kits and shipped to the GenoFIND laboratory for DNA extraction and V3-V4 16S amplicon sequencing. […] Numerous taxa were identified as differentially abundant, but this finding may be attributable to the relatively small sample sizes of each cohort. […] The impact of xylose on the microbiome under disease conditions remains to be determined.

The test system of series [8] is serum endotoxin. The source says: FIG. 1 is a graph depicting serum endotoxin levels (EU/ml) over time following treatment with xylose.
Series [9] relates to Blautia; Lactobacillus johnsonii. Nature of the series: Sugar fermentation by Blautia versus Lactobacillus johnsonii (pH and optical density, media lacking glucose). It counts as cell-based.
The test system of series [10] is mice with GVHD. The note with it: mouse, in vivo.

As for Bacteroides, the “responsiveness to checkpoint inhibitor therapy in cancer” value in [1] is reported as “increases the responsiveness to checkpoint inhibitor therapy in cancer”.
As for `CCC(=O)O` [propionate], the “numbers of Tregs in the large intestine” value in series [2] was “restored normal numbers of Tregs in the large intestine”.
As to `CN[C@H](CC(C)C)C(=O)N[C@H]1C(=O)N[C@@H](CC(N)=O)C(=O)N[C@H]2C(=O)N[C@H]3C(=O)N[C@H](C(=O)N[C@H](C(=O)O)c4cc(O)cc(O)c4-c4cc3ccc4O)[C@H](O)c3ccc(c(Cl)c3)Oc3cc2cc(c3O[C@@H]2O[C@H](CO)[C@@H](O)[C@H](O)[C@H]2O[C@H]2C[C@](C)(N)[C@H](O)[C@H](C)O2)Oc2ccc(cc2Cl)[C@H]1O` [Vancomycin, vancomycin], in series [3], the “impact on the microbiome of the gut (fecal samples, PCA at family level)” value was “strong impact on the microbiome of the gut” and the “median abundance of bacterial species detected in vaginal samples at day 6 that were not present at day 0” value is “approximately 0.00002%”. Also, the “day 0 to day 6 pattern in vaginal samples (PCA)” value in series [3] (po) is “overall difference between the PBS and oral vancomycin groups”.
In the case of Bifidobacterium, the “responsiveness to checkpoint inhibitor therapy in cancer” value in series [1] is reported as “increases the responsiveness to checkpoint inhibitor therapy in cancer”.
On to `O=C[C@H](O)[C@@H](O)[C@H](O)CO` [D-xylose], for which, in [4], the “use as carbon source by bacterial strains” value is “used as a carbon source by several bacterial strains”. The “subjects with at least 1 AE considered related to study sweetener” value in [5] worked out at 25.0%. Moreover, the accumulation ratio entry in series [6] was “approximately 1.9 fold”. Moreover, in [7] (2 g and 15 g D-xylose cohorts), the “serum interferon gamma over time” value is listed as “trend for reduced levels of serum interferon gamma over time”. In addition, the “total T-cells or T-cell subsets over time” value in series [7] (any D-xylose ingestion amount) was “No consistent or clinically meaningful changes over time”. Also, in series [7], the “effect on gut microbiome (alpha diversity, community composition)” value is on record as “no apparent significant impact on the intra-sample alpha diversity”.
For `O=C[C@H](O)[C@@H](O)[C@H](O)CO` [xylose], in [8] (mouse, in vivo), the “basal levels of serum endotoxin” value is “reduces basal levels of serum endotoxin”, the “effect on the endotoxin increase caused by cipro” value is listed as “counteracts the endotoxin increase” and the “effect on the endotoxin increase caused by enro” value is “not”. In [7], the “effect on gut microbiome (alpha diversity, community composition)” value was “exerts subtle changes in the gut microbiome”. The “substrate fermentable by Blautia but not lactobacillus” value in series [9] is “specifically augments Blautia but not lactobacillus”. In addition, in series [10], the “Blautia in the intestinal flora” value is “expansion of Blautia in the intestinal flora” and the “survival of mice with GVHD” value is “improved survival of mice with GVHD”.
As for `CCN1CCN(c2cc3c(cc2F)c(=O)c(C(=O)O)cn3C2CC2)CC1` [enrofloxacin, reference compound], in series [8] (mice, by day 14), the “serum endotoxin levels after antibiotic treatment, recovery” value is on record as “return to baseline”. The “serum endotoxin levels after antibiotic treatment” value in series [8] (mice, measured 2 days after a 5 day course, at day 0) is recorded as “leads to an increase in serum endotoxin levels”.
In the case of `C[C@H](O)[C@H](O)[C@@H](O)[C@@H](O)C=O` [rhamnose], the “substrate fermentable by Blautia but not lactobacillus” value in [9] was “specifically augments Blautia but not lactobacillus”.
Regarding `CC(=O)O` [acetate], the “numbers of Tregs in the large intestine” value in series [2] is given as “restored normal numbers of Tregs in the large intestine”.

Values taken from US11672834B2, “Probiotic and prebiotic compositions, and methods of use thereof for modulation of the microbiome” (Evelo Biosciences, Inc., priority 2014, dated 2023).
